Reference: patent US11395857B2, “Radiolabeled melanocortin 1 receptor-specific alpha-melanocyte-stimulating hormone analogues for imaging or therapy” (PROVINCIAL HEALTH SERVICES AUTHORITY, priority 2018, dated 2022)
Read-outs that look alike come from different tables or passages of the source.

What was measured:
[1] = Biodistribution of 177Lu-labeled αMSH analogues in mice bearing B16F10 mouse melanoma; type: in vivo, C57BL/6J mice; settings: mouse, iv, total radioactivity, C57BL/6J mice, B16F10 melanoma
Protocol: (§1) The B16-F10 mouse melanoma cells were cultured and inoculated in mice as described in Example 1.
(§2) For biodistribution studies, approximately 1-2 MBq of ^177Lu-labeled αMSH analogues via tail vein under anesthesia. At 1, 4, 24, and 120 h p.i., the mice were euthanized by CO2 inhalation. Organs/tissues were harvested and the radioactivity was measured as described in Example 1.

[2] = tested on: B16F10 mouse melanoma; test: as above; type: in vivo, C57BL/6J mice; settings: C57BL/6J mice, B16F10 melanoma
Protocol: as §1, §2

tissue uptake at 1 h ([1]; male, seminal glands, 1 h p.i., read-out: Biodistribution, Seminal glands): 0.5 ± 0.11 %ID/g
tissue uptake at 4 h ([1]; male, seminal glands, 4 h p.i., read-out: Biodistribution, Seminal glands): 0.15 ± 0.06 %ID/g
tissue uptake at 24 h ([1]; male, seminal glands, 24 h p.i., read-out: Biodistribution, Seminal glands): 0.04 ± 0.01 %ID/g
tissue uptake at 120 h ([1]; male, seminal glands, 120 h p.i., read-out: Biodistribution, Seminal glands): 0.02 ± 0.01 %ID/g
tissue uptake at 1 h ([1]; male, testes, 1 h p.i., read-out: Biodistribution, Testes): 1.07 ± 0.11 %ID/g
tissue uptake at 4 h ([1]; male, testes, 4 h p.i., read-out: Biodistribution, Testes): 0.4 ± 0.14 %ID/g
tissue uptake at 24 h ([1]; male, testes, 24 h p.i., read-out: Biodistribution, Testes): 0.16 ± 0.02 %ID/g
tissue uptake at 120 h ([1]; male, testes, 120 h p.i., read-out: Biodistribution, Testes): 0.1 ± 0.01 %ID/g
tissue uptake at 1 h ([1]; adrenal glands, 1 h p.i., read-out: Biodistribution, Adrenal glands): 2.9 ± 1.51 %ID/g
tissue uptake at 4 h ([1]; adrenal glands, 4 h p.i., read-out: Biodistribution, Adrenal glands): 0.54 ± 0.48 %ID/g
tissue uptake at 24 h ([1]; adrenal glands, 24 h p.i., read-out: Biodistribution, Adrenal glands): 0.2 ± 0.09 %ID/g
tissue uptake at 120 h ([1]; adrenal glands, 120 h p.i., read-out: Biodistribution, Adrenal glands): 0.18 ± 0.06 %ID/g
tissue uptake at 1 h ([1]; blood, 1 h p.i., read-out: Biodistribution, Blood): 6.87 ± 0.88 %ID/g
tissue uptake at 4 h ([1]; blood, 4 h p.i., read-out: Biodistribution, Blood): 1.41 ± 0.6 %ID/g
tissue uptake at 24 h ([1]; blood, 24 h p.i., read-out: Biodistribution, Blood): 0.05 ± 0.02 %ID/g
tissue uptake at 120 h ([1]; blood, 120 h p.i., read-out: Biodistribution, Blood): 0.01 %ID/g
tissue uptake at 1 h ([1]; bone, 1 h p.i., read-out: Biodistribution, Bone): 0.96 ± 0.18 %ID/g
tissue uptake at 4 h ([1]; bone, 4 h p.i., read-out: Biodistribution, Bone): 0.29 ± 0.11 %ID/g
tissue uptake at 24 h ([1]; bone, 24 h p.i., read-out: Biodistribution, Bone): 0.13 ± 0.03 %ID/g
tissue uptake at 120 h ([1]; bone, 120 h p.i., read-out: Biodistribution, Bone): 0.12 ± 0.04 %ID/g
tissue uptake at 1 h ([1]; brain, 1 h p.i., read-out: Biodistribution, Brain): 0.13 ± 0.01 %ID/g
tissue uptake at 4 h ([1]; brain, 4 h p.i., read-out: Biodistribution, Brain): 0.03 ± 0.02 %ID/g
tissue uptake at 24 h ([1]; brain, 24 h p.i., read-out: Biodistribution, Brain): 0.01 %ID/g
tissue uptake at 120 h ([1]; brain, 120 h p.i., read-out: Biodistribution, Brain): 0.01 %ID/g
tissue uptake at 1 h ([1]; fat, 1 h p.i., read-out: Biodistribution, Fat): 0.43 ± 0.08 %ID/g
tissue uptake at 4 h ([1]; fat, 4 h p.i., read-out: Biodistribution, Fat): 0.12 ± 0.03 %ID/g
tissue uptake at 24 h ([1]; fat, 24 h p.i., read-out: Biodistribution, Fat): 0.03 ± 0.01 %ID/g
tissue uptake at 120 h ([1]; fat, 120 h p.i., read-out: Biodistribution, Fat): 0.02 ± 0.01 %ID/g
tissue uptake at 1 h ([1]; heart, 1 h p.i., read-out: Biodistribution, Heart): 1.93 ± 0.16 %ID/g
tissue uptake at 4 h ([1]; heart, 4 h p.i., read-out: Biodistribution, Heart): 0.45 ± 0.19 %ID/g
tissue uptake at 24 h ([1]; heart, 24 h p.i., read-out: Biodistribution, Heart): 0.08 ± 0.01 %ID/g
tissue uptake at 120 h ([1]; heart, 120 h p.i., read-out: Biodistribution, Heart): 0.05 %ID/g
tissue uptake at 1 h ([1]; intestine, 1 h p.i., read-out: Biodistribution, Intestine): 1.2 ± 0.2 %ID/g
tissue uptake at 4 h ([1]; intestine, 4 h p.i., read-out: Biodistribution, Intestine): 1.53 ± 2.04 %ID/g
tissue uptake at 24 h ([1]; intestine, 24 h p.i., read-out: Biodistribution, Intestine): 0.21 ± 0.05 %ID/g
tissue uptake at 120 h ([1]; intestine, 120 h p.i., read-out: Biodistribution, Intestine): 0.1 ± 0.04 %ID/g
tissue uptake at 1 h ([1]; kidneys, 1 h p.i., read-out: Biodistribution, Kidneys): 12 ± 0.83 %ID/g
tissue uptake at 4 h ([1]; kidneys, 4 h p.i., read-out: Biodistribution, Kidneys): 12.7 ± 3.58 %ID/g
tissue uptake at 24 h ([1]; kidneys, 24 h p.i., read-out: Biodistribution, Kidneys): 6.32 ± 0.43 %ID/g
tissue uptake at 120 h ([1]; kidneys, 120 h p.i., read-out: Biodistribution, Kidneys): 1.43 ± 0.31 %ID/g
tissue uptake at 1 h ([1]; liver, 1 h p.i., read-out: Biodistribution, Liver): 3.65 ± 0.25 %ID/g
tissue uptake at 4 h ([1]; liver, 4 h p.i., read-out: Biodistribution, Liver): 3.58 ± 0.85 %ID/g
tissue uptake at 24 h ([1]; liver, 24 h p.i., read-out: Biodistribution, Liver): 2.59 ± 0.31 %ID/g
tissue uptake at 120 h ([1]; liver, 120 h p.i., read-out: Biodistribution, Liver): 1.25 ± 0.51 %ID/g
tissue uptake at 1 h ([1]; lungs, 1 h p.i., read-out: Biodistribution, Lungs): 6.71 ± 3.02 %ID/g
tissue uptake at 4 h ([1]; lungs, 4 h p.i., read-out: Biodistribution, Lungs): 2.34 ± 0.63 %ID/g
tissue uptake at 24 h ([1]; lungs, 24 h p.i., read-out: Biodistribution, Lungs): 0.33 ± 0.08 %ID/g
tissue uptake at 120 h ([1]; lungs, 120 h p.i., read-out: Biodistribution, Lungs): 0.14 ± 0.08 %ID/g
tissue uptake at 1 h ([1]; muscle, 1 h p.i., read-out: Biodistribution, Muscle): 0.75 ± 0.09 %ID/g
tissue uptake at 4 h ([1]; muscle, 4 h p.i., read-out: Biodistribution, Muscle): 0.18 ± 0.09 %ID/g
tissue uptake at 24 h ([1]; muscle, 24 h p.i., read-out: Biodistribution, Muscle): 0.03 ± 0.01 %ID/g
tissue uptake at 120 h ([1]; muscle, 120 h p.i., read-out: Biodistribution, Muscle): 0.02 %ID/g
tissue uptake at 1 h ([1]; pancreas, 1 h p.i., read-out: Biodistribution, Pancreas): 1.13 ± 0.24 %ID/g
tissue uptake at 4 h ([1]; pancreas, 4 h p.i., read-out: Biodistribution, Pancreas): 0.31 ± 0.08 %ID/g
tissue uptake at 24 h ([1]; pancreas, 24 h p.i., read-out: Biodistribution, Pancreas): 0.08 ± 0.02 %ID/g
tissue uptake at 120 h ([1]; pancreas, 120 h p.i., read-out: Biodistribution, Pancreas): 0.05 ± 0.01 %ID/g
tissue uptake at 1 h ([1]; spleen, 1 h p.i., read-out: Biodistribution, Spleen): 2.06 ± 0.21 %ID/g
tissue uptake at 4 h ([1]; spleen, 4 h p.i., read-out: Biodistribution, Spleen): 1.02 ± 0.27 %ID/g
tissue uptake at 24 h ([1]; spleen, 24 h p.i., read-out: Biodistribution, Spleen): 0.64 ± 0.09 %ID/g
tissue uptake at 120 h ([1]; spleen, 120 h p.i., read-out: Biodistribution, Spleen): 0.35 ± 0.15 %ID/g
tissue uptake at 1 h ([1]; stomach, 1 h p.i., read-out: Biodistribution, Stomach): 0.74 ± 0.18 %ID/g
tissue uptake at 4 h ([1]; stomach, 4 h p.i., read-out: Biodistribution, Stomach): 2.33 ± 4.11 %ID/g
tissue uptake at 24 h ([1]; stomach, 24 h p.i., read-out: Biodistribution, Stomach): 0.42 ± 0.13 %ID/g
tissue uptake at 120 h ([1]; stomach, 120 h p.i., read-out: Biodistribution, Stomach): 0.2 ± 0.09 %ID/g
tissue uptake at 1 h ([1]; thyroid, 1 h p.i., read-out: Biodistribution, Thyroid): 2.47 ± 0.26 %ID/g
tissue uptake at 4 h ([1]; thyroid, 4 h p.i., read-out: Biodistribution, Thyroid): 1.66 ± 0.42 %ID/g
tissue uptake at 24 h ([1]; thyroid, 24 h p.i., read-out: Biodistribution, Thyroid): 1.59 ± 0.15 %ID/g
tissue uptake at 120 h ([1]; thyroid, 120 h p.i., read-out: Biodistribution, Thyroid): 1.03 ± 0.24 %ID/g
tissue to tissue ratio at 1 h ([1]; tumour/blood, 1 h p.i., read-out: Tumour/blood): 3.58 ± 0.31
tissue to tissue ratio at 4 h ([1]; tumour/blood, 4 h p.i., read-out: Tumour/blood): 24.3 ± 9.37
tissue to tissue ratio at 24 h ([1]; tumour/blood, 24 h p.i., read-out: Tumour/blood): 397 ± 123
tissue to tissue ratio at 120 h ([1]; tumour/blood, 120 h p.i., read-out: Tumour/blood): 339 ± 149
tissue to tissue ratio at 1 h ([1]; tumour/kidney, 1 h p.i., read-out: Tumour/kidney): 2.04 ± 0.15
tissue to tissue ratio at 4 h ([1]; tumour/kidney, 4 h p.i., read-out: Tumour/kidney): 2.47 ± 0.8
tissue to tissue ratio at 24 h ([1]; tumour/kidney, 24 h p.i., read-out: Tumour/kidney): 2.91 ± 0.2
tissue to tissue ratio at 120 h ([1]; tumour/kidney, 120 h p.i., read-out: Tumour/kidney): 1.89 ± 0.37
tissue to tissue ratio at 1 h ([1]; tumour/muscle, 1 h p.i., read-out: Tumour/muscle): 32.9 ± 2.98
tissue to tissue ratio at 4 h ([1]; tumour/muscle, 4 h p.i., read-out: Tumour/muscle): 194 ± 82.7
tissue to tissue ratio at 24 h ([1]; tumour/muscle, 24 h p.i., read-out: Tumour/muscle): 556 ± 108
tissue to tissue ratio at 120 h ([1]; tumour/muscle, 120 h p.i., read-out: Tumour/muscle): 173 ± 19
excreta dose per gram or mL at 1 h ([1]; urine, 1 h p.i.): 158 ± 83.1 %ID/g
excreta dose per gram or mL at 4 h ([1]; urine, 4 h p.i.): 124 ± 8.4 %ID/g
excreta dose per gram or mL at 24 h ([1]; urine, 24 h p.i.): 4.39 ± 2.89 %ID/g
excreta dose per gram or mL at 120 h ([1]; urine, 120 h p.i.): 1.11 ± 0.72 %ID/g
Biodistribution, B16F10 tumour ([2]; 1 h p.i.): 24.4 ± 1.76 % ID/g
Biodistribution, B16F10 tumour ([2]; 4 h p.i.): 29.7 ± 5.23 % ID/g
Biodistribution, B16F10 tumour ([2]; 24 h p.i.): 18.4 ± 1.35 % ID/g
Biodistribution, B16F10 tumour ([2]; 120 h p.i.): 2.63 ± 0.21 % ID/g
SMILES: CCCC[C@H](NC(=O)CN1CCC(NC(=O)[C@H](CCCCNC(=O)CN2CCN(CC(=O)O)CCN(CC(=O)O)CCN(CC(=O)O)CC2)NC(=O)[C@H](CCC(=O)O)NC(=O)CCCc2ccc(I)cc2)CC1)C(=O)N[C@H]1CC(=O)NCCCC[C@@H](C(N)=O)N(C)C(=O)[C@H](Cc2c[nH]c3ccccc23)NC(=O)[C@H](CCCNC(=N)N)N(C)C(=O)[C@@H](Cc2ccccc2)NC(=O)[C@H](Cc2c[nH]cn2)NC1=O [^177Lu-labeled CCZ01118, metal not drawn]
